Test results reported in patent US20250163010A1, “PROCESSES FOR THE PREPARATION OF N-(1-METHYLCYCLOPROPYL)-2-(3-PYRIDINYL)-2H-INDAZOLE-4-CARBOXAMIDE AND INTERMEDIATES THEREOF” (FMC CORPORATION, priority 2022, published 2025).

Legend:
[1] = Form A and Form B interconversion (competitive) slurries; type: physicochemical
Method: Relative thermodynamic stabilities of anhydrous/non-solvated Forms A and B were studied at 2-8° C., room temperature (RT) and at 71-72° C. via interconversion (competitive) slurries. In these slurries, a given solvent system was pre-saturated with compound 092 (Form A+minor Form B) at the stated temperature, and a portion of the liquid phase was filtered into a mixture of solids containing relatively equal amounts of Form A and Form B. Interconversion slurries at 2-8° C. and RT were allowed to stir for 22 days, while slurries at 71-72° C. stirred for shorter duration (2-4 days). […] The results are reported in table 13 below where: liquid phase for each slurry was pre-saturated using as-received Form A+minor Form B; solvent ratios are v/v; water activity values were calculated using UNIFAC calculator at RT; and times and temperatures are approximate.

[2] = Stable polymorph form screen by slurry experiments; type: physicochemical; conditions: between 2° C. and 73° C.; conclusion from slurries
Method: Slurry experiments were conducted to identify the stable form at various conditions. In these experiments, saturated solutions in various solvents containing excess undissolved solids (starting with Form A+minor Form B) were stirred for extended durations. Slurries at room temperature (RT) and 2-8° C. were typically conducted for approximately 2 weeks, while slurries at 72-73° C. were stirred for a shorter duration (1 day) to minimize the potential for decomposition. […] The results are shown in the table 12 where the time and temperatures are approximate.

SMILES	Final form (XRPD Result) ([1]; competitive slurry in EtOH, 71-72° C., 2 d, relatively equal amounts of Form A and Form B)	Final form (XRPD Result) ([1]; competitive slurry in EtOH, RT, 22 d, relatively equal amounts of Form A and Form B)	Final form (XRPD Result) ([1]; competitive slurry in NMP/water 80:20 (aw 0.39), 2-8° C., 22 d, relatively equal amounts of Form A and Form B)	Final form (XRPD Result) ([1]; competitive slurry in NMP/water 80:20 (aw 0.39), 71-72° C., 2 d, analyzed damp)	Final form (XRPD Result) ([1]; competitive slurry in NMP/water 80:20 (aw 0.39), RT, 22 d, relatively equal amounts of Form A and Form B)	Relative thermodynamic stability of polymorph forms ([1]; between 2° C. and 72° C., conclusion from competitive slurries)	Relative stability of polymorph forms [2]
CC1(NC(=O)c2cccc3nn(-c4cccnc4)cc23)CC1 [Form A + Form B, N-(1-methylcyclopropyl)-2-(3-pyridinyl)-2H-indazole 4-carboxamide]	Form A	Form A	Form A	Form A	Form A	–	–
CC1(NC(=O)c2cccc3nn(-c4cccnc4)cc23)CC1 [Form A, N-(1-methylcyclopropyl)-2-(3-pyridinyl)-2H-indazole 4-carboxamide]	–	–	–	–	–	thermodynamically stable form	more stable than Form B
